Reference: US20250058002A1, “ELECTROCHEMICAL INHIBITION OF REDOX ACTIVE BACTERIA AND RELATED DEVICES, METHODS AND SYSTEMS” (priority 2023, published 2025)
Like-named read-outs stand apart in the source and are kept apart here.

Experiments:
[1] = vs NHE at pH7; cited from earlier work
[2] = from Wang and Newman (2008), cited from earlier work
[3] = oxidized form; literature values (footnotes a, c, d); cited from earlier work
[4] = system: PA14; test: Reduction of redox-active compound by PA14 (Table 4); format: cell-based, P. aeruginosa
Description: (§1) Phenazines and other redox active compound in the sense of the disclosure can be further characterized by various electrical properties such as a standard electrode potential E° vs. NHE of −500 mV to 500 mV and other properties such as number of redox cycle over a certain period of time (e.g. number of days) as ability to support survival and susceptibility to reduction by enzymes and/or bacterial strains.

[5] = system: PA14; test: Redox cycles over 7 days and support of survival (Table 4); format: cell-based, P. aeruginosa
Description: as §1

[6] = Midpoint potential E1/2 by voltammetry vs Ag/AgCl (3M KCl); format: physicochemical; conditions: Example 15 table
Protocol: The purified redox-active molecule can be dissolved in aqueous solution at appropriate concentration in the presence of supporting electrolyte and buffer to select the pH of measurement. For example, the redox-active molecule can be dissolved in 10 μM-10 mM concentrations in distilled, deionized water (DDW). The supporting electrolyte can be a salt such as NaCl or KCl at 0.01-0.5 M concentrations, for example, dissolved in DDW. The buffer can be 10 mM ammonium acetate/3-(N-morpholino)propanesulfonic acid at pH 7, or phosphate-buffered saline (PBS) at pH 7.4, or sodium acetate buffer at pH 5, or di-sodium hydrogen phosphate/potassium dihydrogen phosphate at pH 9, or boric acid/citric acid/trisodium phosphate for a wide range of pH values, for example.
Voltammetric methods are then used to characterize the electrochemical behavior of the redox-active molecule in such solution, with a potentiostat such as a Gamry PC4-300, using a three-electrode setup with working electrode (glassy carbon, or platinum, or gold), counter electrode (platinum wire) and reference electrode (Ag/AgCl (3M KCl), or SCE, or NHE; values are reported relative to Ag/AgCl (3M KCl) which has potential +197 mV vs. NHE at 298K).
For example, cyclic voltammetry may be used. In a cyclic voltammetry experiment phenazines will show a peak on the cathodic sweep (denoted Epc) corresponding to the reduction of the redox molecule.
The reverse, anodic sweep will show a peak (denoted Epa) corresponding to the re-oxidation of the redox molecule. If the electrode reaction is diffusion-controlled and reversible, the cathodic and anodic peak currents will be equal in area, and the mid-point between these peaks may be taken as the formal reduction potential of the redox molecule under the experimental conditions used. This value can interchangeably be referred to as the “midpoint potential” or “mid-peak potential”, denoted E1/2.
PYO was purified from aerobic bacterial cultures and was dissolved in 0.1 M KCl aqueous solution buffered with 10 mM ammonium acetate-3-(N-morpholino)propanesulfonic acid (5 mM each, pH 7) to yield a stock solution concentration of 829 μM PYO. Electrochemical measurements were performed with a Gamry PC4-300 potentiostat. A stationary gold disk electrode (BASi) was used as the working electrode, an Ag/AgCl electrode (RE-51, BASi) as the reference, and a straight platinum wire (BASi) was the counter electrode. Scans were performed between 20 and 500 mV/s in the potential range of around E1/2 (+/−300 mV), at 298 K.
As described in en.wikipedia.org/wiki/Nernst_equation, the Nernst equation relates E1/2 measured at pH 7 to the E1/2 at a different pH by:
[formula] • where E1/2 is in V • h is the number of protons transferred in the electrochemical reaction • e is the number of electrons transferred in the electrochemical reaction

[7] = system: P. aeruginosa PA14 biofilms; test: Anoxic survival (CFU) of electrode-attached wild type biofilms at poised potential with sub-MIC antibiotics; format: cell-based, P. aeruginosa UCBPP-PA14
Protocol: Electrochemical reactors and biofilm growth. Double-jacketed electrochemical reactors (Pine Instruments, 250 ml, wide center port 29/26) were used with ITO-coated 0.2 mm thick boro-aluminosilicate glass slides (Delta Technologies, 24×60 mm, Rs=7-10Ω) as working electrodes, freshly sanded graphite rods (Alfa Aesar) as counter electrodes, and Ag/AgCl in 3M KCl reference electrodes (BASi). Silver epoxy (Electron Microscopy Sciences) was used to make electrical connection between insulated wire ([…]) and working electrode and was insulated using 5 Minute® expoxy (Devcon). Working electrodes were assembled within 5 hours of use. Reactors were sterilized by autoclaving without reference or working electrodes, which were sterilized by submerging in 10% bleach for 5 minutes or 30 seconds, respectively, and rinsed in sterile water. Individual mid-log liquid cultures (OD600 0.45-0.55) were used to inoculate sterile reactors containing 140 ml of MM (described above) with 0.1% (vol/vol) for each biological replicate. Antibiotics were not added at this point. Working electrodes were poised at either open circuit, +100 mV, or −400 mV vs. Ag/AgCl (+310 mV and −190 mV vs the standard hydrogen electrode, respectively). Reactors were aerated using an aquarium pump with a 0.2 μm filter (Thermo Scientific) and heated to 31° C. using a circulating water bath (Haake A 25, Thermo Scientific). Fresh medium was exchanged every 24 hours for 5 days. After 5 days of aerobic growth, working electrode-attached biofilms were rinsed in sterile medium to remove planktonic cells and transferred to sterile reactors with fresh MM previously flushed for 2 hours with N2 ultra-high purity gas (NRL supply store). For antibiotic exposure experiments, antibiotics were added to sterile media before flushing with N2. For PYO-addition experiments, 10 μM PYO (Cayman Chemical) was added to in the MM before flushing with N2. Working electrodes were poised to their corresponding potential and biofilms were incubated for an additional 72 hours under N2 flushing at 31° C.
Biofilm harvesting and processing. After 72 hours of incubation under anoxic conditions, electrode-attached biofilms were rinsed in sterile media. The biofilms within the bottom 3.12 cm^2 of each working electrode were scraped off using a cell scraper (Sarstedt) and resuspended in antibiotic-free MM. Serial dilutions were prepared in sterile antibiotic-free MM and plated on antibiotic-free LB. The rest of the electrode-attached biofilms were incubated at room temperature in freshly-made 2 μM TOTO-1 and 10 μM SYTO-60 (Invitrogen) in MM for 15 minutes and rinsed 2× in sterile MM for 15 minutes. Imaging was done with an upright Zeiss LSM 800 microscope with Airyscan and a 40× oil immersion lens. SYTO-60 was excited with a 561 nm; 0.20% laser and emission was recorded from 580-700 nm. TOTO-1 was excited with a 488 nm; 0.20% laser and emission was recorded from 490 to 580 nm.
In order to test the effect of antibiotic in combination with application of a difference in voltage to P. aenuginosa, sub-MICs of gentamicin, meropenem, ciprofloxacin, and colistin were added to anoxic survival reactors set up as described in Examples 1 and 2.

Compound: Menaquinone [Menaquinone ox/red]
- Redox potentials E (mV) [1]: −75 mV

Compound: Oc1cccc2nc3ccccc3nc12 [1-Hydroxyphenazine (1-OHPHZ), 1-Hydroxyphenazine]
- E1/2 (vs. Ag/AgCl (3M KCl))/mV ([2]; pH 5): −254 mV
- E1/2 (vs. Ag/AgCl (3M KCl))/mV ([2]; pH 6): −323 mV
- E1/2 (vs. Ag/AgCl (3M KCl))/mV ([2]; pH 7): −371 mV
- E1/2 (vs. Ag/AgCl (3M KCl))/mV ([2]; pH 8): −442 mV
- E0' (vs. NHE) (mV) [3]: −174^a mV
- Reduction by PA14? [4]: Yes
- Support survival? [5]: Yes
- # of Redox cycles over 7 days [5]: 14
- E1/2 (vs. Ag/AgCl (3M KCl))/mV ([6]; pH 5): −254 mV
- E1/2 (vs. Ag/AgCl (3M KCl))/mV ([6]; pH 6): −323 mV
- E1/2 (vs. Ag/AgCl (3M KCl))/mV ([6]; pH 7): −371 mV
- E1/2 (vs. Ag/AgCl (3M KCl))/mV ([6]; pH 8): −442 mV

Compound: NC1=C(C(=O)O)C(=O)c2ccccc2C1=O [ACNQ ox/red, ACNQ]
- Redox potentials E (mV) [1]: −71 mV

Compound: O=C(O)c1cccc2nc3c(C(=O)O)cccc3nc12
- E1/2 (vs. Ag/AgCl (3M KCl))/mV ([6]; pH 7): 0 mV

Compound: colistin
- decrease in CFUs under PYO-oxidative conditions compared with nontreated biofilms ([7]; +100 mV, 10 μg/mL colistin vs no antibiotic): 10 ×
- effect on wild type biofilms under PYO-reductive conditions (in words) ([7]; −400 mV vs Ag/AgCl, anoxic, sub-MIC antibiotic): did not show an additive effect

Compound: O=C1c2ccc(S(=O)(=O)O)cc2C(=O)C2C=CC(S(=O)(=O)O)=CC12 (centres unmarked)
- E1/2 (vs. Ag/AgCl (3M KCl))/mV ([6]; pH 7): −381 mV

Compound: C[C@@H](O)[C@H]1C(=O)N2C(C(=O)O)=C(S[C@@H]3CN[C@H](C(=O)N(C)C)C3)[C@H](C)[C@H]12 [meropenem]
- decrease in cell survival under PYO-reductive conditions compared with OC ([7]; −400 mV vs OC, 1 μg/mL meropenem or 4 μg/mL ciprofloxacin): ~100 ×

Compound: C[n+]1c2ccccc2nc2c(C(=O)O)cccc21
- E1/2 (vs. Ag/AgCl (3M KCl))/mV ([6]; pH 7): 0 mV

Compound: NC1=C(C(=O)O)C(=O)c2ccccc2C1=O [drawing 45]
- E1/2 (vs. Ag/AgCl (3M KCl))/mV ([6]; pH 7): −250 mV

Compound: O=C1c2ccc(S(=O)(=O)O)cc2C(=O)c2ccc(S(=O)(=O)O)cc21 [2,6-AQDS]
- E0' (vs. NHE) (mV) [3]: −184^d mV
- Reduction by PA14? [4]: Yes (very slowly)
- Support survival? [5]: No
- # of Redox cycles over 7 days [5]: No cycle
- Redox potentials E (mV) [1]: −184 mV

Compound: NC(=O)c1cccc2nc3ccccc3nc12 [XXV, phenazine-1-carboxamide]
- E1/2 (vs. Ag/AgCl (3M KCl))/mV ([2]; pH 5): −205 mV
- E1/2 (vs. Ag/AgCl (3M KCl))/mV ([2]; pH 6): −278 mV
- E1/2 (vs. Ag/AgCl (3M KCl))/mV ([2]; pH 7): −337 mV
- E1/2 (vs. Ag/AgCl (3M KCl))/mV ([6]; pH 5): −205 mV
- E1/2 (vs. Ag/AgCl (3M KCl))/mV ([6]; pH 6): −278 mV
- E1/2 (vs. Ag/AgCl (3M KCl))/mV ([6]; pH 7): −337 mV
